Here are results for nine compounds from US20050148553A1, “Use of tigecycline, alone, or in combination with rifampin to treat osteomyelitis and/or septic arthritis” (priority 2003, published 2005).

In brackets after ≈: the same amount, converted by molar mass. Several values for one entry are separate records, joined by “and”; a condition that tells them apart may be missing. Identical values can stand only once. Like-named read-outs stand apart in the source and are kept apart here.

One data set relates to Mycobacterium abscessus. The format is in vivo, human. Conditions: human, in vivo. The method, then: Debridement was accomplished after one year of infection with placement of hardware. […] The amikacin was later stopped due to renal damage. Linezolid and azithromycin were later added to the treatment regimen. The organism was determined to be resistant to moxifloxacin.
The patient presented later with a new vertebral osteomyelitis just above the site of the old infection. A biopsy was performed and it was determined that no additional debridement was needed. […] Tigecycline was administered up to MIC 0.25 micrograms/ml. The patient's white blood cell count was normal while hypogammaglobulinemia was present and lymphocytic function decreased. The patient had also been under treatment with IL-12, but IL-12 was held during antibiotic treatment.

A further data set concerns Acinetobacter baumannii. Kind of data set: Compassionate use study, osteomyelitis patient. The format is in vivo, human. To be noted: one human patient. The method, then:
The patient was treated with meropenem and tobramycin. […] The patient was then treated with tigecycline for two months with either 50 mg every 12 hours or 50 mg every 24 hours.

In another data set the test system is A. baumanii. Kind of data set: Susceptibility of patient isolate. The format is cell-based, Acinetobacter baumannii. To be noted: A. baumanii from patient bone.
The test system of a further data set is M. abcessus. As to the kind of experiment: Susceptibility/MIC of patient isolate, compassionate use study. The format is cell-based, Mycobacterium abscessus. To be noted: M. abscessus patient isolate.
In data set [1] the test system is methicillin-resistant S. aureus. As to the kind of experiment: microbe, parasite or virus in culture. To be noted: for MBC / MIC: Staphylococcus aureus; for MBC: read-out: minimum bactericidal concentration (MBC); for MIC: read-out: minimum inhibitory concentration (MIC). The format is cell-based, Staphylococcus aureus. The method, then: The minimum inhibitory concentrations (MIC) of tigecycline, vancomycin and rifampin were determined using an antibiotic two-fold tube-dilution method. The minimum bactericidal concentrations were also determined. The limits of sensitivity of this method were 25 μg/ml to 0.20 μg/ml.

Data set [2] can be described thus: Antibiotic levels in rabbit serum and bone by diffusion bioassay. Conditions: infected rabbits; tigecycline 14 mg/kg, vancomycin 30 mg/kg twice daily. The format is in vivo, New Zealand white rabbits. The method, then: Normal NZW rabbit serum (Fisher Scientific) and normal, uninfected rabbit tibia bone were used to generate standard curves for tigecycline (Wyeth-Ayerst Research, Pearl River, N.Y.), vancomycin (Abbott Laboratories, Chicago, Ill.), and rifampin (Merrell Pharmaceuticals Inc. Kansas, Mo.). Bioassays were performed with each drug to generate the standard curves for antibiotic concentration in serum and/or tibial bone.
The organism used for the bioassay was Bacillus cereus ATCC11778. Serum standards were prepared using two-fold serial dilutions with either antibiotic to yield concentrations of 25 μg/ml to 0.20 μg/ml drug in Normal NZW rabbit serum. Bone eluate standards were prepared for tigecycline by thoroughly cleaning noninfected rabbit tibias with 70% ethanol in a sterilized fume hood. Each tibia was broken into small chips of approximately 0.5 cm^2 using a grinder. The chips were placed into a sterile, 50 ml conical centrifuge tube and weighed. One milliliter of sterile, 0.9% normal saline was added for each gram of bone chips. The solution was thoroughly vortexed for two minutes. The resulting bone eluate was allowed to shake at 180 rpm in a cold room at 4° C., for 12 hours. The samples were centrifuged at 4000 rpm for 3 minutes prior to assay, to pellet the chips.
The diameter of the zone of growth inhibition around each well was measured, in millimeters. A standard curve was generated for tigecycline concentration in both serum and bone eluate and for vancomycin in serum by plotting the known antibiotic concentration against its resulting zone of inhibition measurement. […]
Serum samples were stored at −70° C. until the bioassay was performed. […] The diameter of the zone of growth inhibition around each well was measured and concentrations of tigecycline were extrapolated from the standard curve.
Peak and trough levels of antibiotic were determined for Groups 2 and 4 at 1 hour (peak) and 12 hour (trough) after the initial antibiotic administration. Antibiotic concentrations were determined by means of a bioassay. […]

Data set [3] is described as follows: Adverse events and weight variance in infected treated rabbits. Conditions: infected rabbits after antibiotic treatment. An excerpt:
All rabbits were monitored weekly for weight variance. […] The key for FIGS. 4A and B is as follows: Control=control group, no treatment; Vancomycin=subcutaneous vancomycin treated group; Vanco+Rifampin=subcutaneous vancomycin with oral rifampin treated group; Gar-936=subcutaneous Gar-936 treated group; Gar-936+Rifampin=subcutaneous Gar-936 with oral Rifampin treated group.

For data set [4], the system named is methicillin-resistant S. aureus.
Method: Preparation of the Infective Media: S. aureus was incubated overnight in Mueller Hinton Broth (Difco Laboratories, Detroit, Mich.) medium spiked with 40 μg/ml oxacillin, at 37° C. The bacterial concentration of the culture was adjusted to 10^7 CFU's/ml.
Rabbit Infection Procedure: New Zealand white rabbits (Ray Nicholl's Rabbitry, Lumberton, Tex.), eight to 12 weeks old and weighing 2.0 to 3.5 kg, were utilized for the study. After anesthesia was given, an 18-gauge needle was inserted percutaneously through the lateral aspect of the left tibial metaphysis into the intramedullary cavity. Next, 0.15 ml of 5% sodium morrhuate (American Regent Laboratories, Inc., Shirley, N.Y.), 0.1 ml of S. aureus (10^7 CFU/ml), and 0.2 ml of sterile, normal saline, 0.9%, were injected sequentially.
Group 1 (control group): infected but left untreated for the duration of the study. Group 2: rabbits were treated for 4 weeks with subcutaneous vancomycin at 30 mg/kg twice daily. Group 3: rabbits were treated for 4 weeks with subcutaneous vancomycin at 30 mg/kg twice daily plus oral rifampin at 40 mg/kg twice daily in 0.5% methylcellulose. Group 4: rabbits were treated for 4 weeks with subcutaneous tigecycline at 14 mg/kg twice daily. Group 5: rabbits were treated for 4 weeks with subcutaneous tigecycline at the same dose as in the rabbits in Group 4, plus oral rifampin at 40 mg/kg twice daily in 0.5% methylcellulose. […] Group 6: rabbits were treated for 1 week with subcutaneous tigecycline at the same dose as in Group 4, but were sacrificed 3 hours after administration of the last dose. At that time, blood and infected bone samples were collected and tigecycline concentration was determined. Groups 1 to 5 were left untreated for 2 weeks after treatment phase of the experiment and sacrificed at 8 weeks after infection.
Radiographs of bilateral tibias were taken at initiation of therapy (2 weeks after infection), at the end of antibiotic therapy (6 weeks after infection), and at sacrifice (8 weeks after infection). Radiographs were scored according to a visual scale (Table 1) by three investigators, each blinded to the treatment group, and the grades were averaged.
After sacrifice, gross cultures were performed for right and left tibias. Quantitative counts of S. aureus, in CFUs per gram, of left tibial bone and marrow were determined for all study groups.
Culture Preparation: The bone marrow and the intramedullary canal of bilateral tibias were swabbed with sterile cotton tip applicators for gross cultures analysis of left tibias and quality assurance checks of right tibias. The inoculated applicator was streaked onto blood plates and then placed into 5 ml of sterile TSB. The plates and tubes were then incubated at 37° C. for 24 hours and growth and/or turbidity was recorded.
The bone marrow was placed into a sterile, 50 ml centrifuge tube and weighed. The bone fragments were broken into 0.5 cm^2 chips, placed into a sterile, 50 ml centrifuge tube, and the final product weighed. Normal sterile saline, 0.9%, was added in a 3 to 1 ratio (3 ml saline/gram of bone or marrow) and the suspensions were vortexed for 2 minutes. Six ten-fold dilutions of each suspension were prepared with sterile, normal saline, 0.9%. Twenty-microliter samples of each dilution, including the initial suspension, was plated, in triplicate, onto blood agar plates and incubated at 37° C. for 24 hours. CFUs were counted at the greatest dilution for each tibia sample.
Where [5] appears, read: average grade, t=14 versus t=56 days.
Where [6] appears, read: individual rabbits, left tibia, 8 weeks after infection.

Regarding `NCC[C@H](O)C(=O)N[C@@H]1C[C@H](N)[C@@H](O[C@H]2O[C@H](CN)[C@@H](O)[C@H](O)[C@H]2O)[C@H](O)[C@H]1O[C@H]1O[C@H](CO)[C@@H](O)[C@H](N)[C@H]1O` [amikacin, reference compound], in the data set with Mycobacterium abscessus, the “adverse event leading to discontinuation” value is on record as “renal damage”.
Take `C[C@@H](O)[C@H]1C(=O)N2C(C(=O)O)=C(S[C@@H]3CN[C@H](C(=O)N(C)C)C3)[C@H](C)[C@H]12` [Meropenem]: the “adverse event leading to discontinuation” value with Acinetobacter baumannii is “eosinophilia”.
As to gentamicin, in the data set on A. baumanii, the “susceptibility of the organism” value is “susceptible”.
For the compound `NC[C@H]1O[C@H](O[C@H]2[C@H](O)[C@@H](O[C@H]3O[C@H](CO)[C@@H](O)[C@H](N)[C@H]3O)[C@H](N)C[C@@H]2N)[C@H](N)C[C@@H]1O` [tobramycin], the “adverse event leading to discontinuation” value in the data set with Acinetobacter baumannii is listed as “increased creatinine”. The “susceptibility of the organism” value in the data set with A. baumanii is listed as “susceptible”.
`CO[C@@]1(NC(=O)Cc2cccs2)C(=O)N2C(C(=O)O)=C(COC(N)=O)CS[C@@H]21` [cefoxitin, reference compound]: the “susceptibility of the organism” value in the data set on M. abcessus was “sensitive”.
Turning to `CN[C@H](CC(C)C)C(=O)N[C@H]1C(=O)N[C@@H](CC(N)=O)C(=O)N[C@H]2C(=O)N[C@H]3C(=O)N[C@H](C(=O)N[C@H](C(=O)O)c4cc(O)cc(O)c4-c4cc3ccc4O)[C@H](O)c3ccc(c(Cl)c3)Oc3cc2cc(c3O[C@@H]2O[C@H](CO)[C@@H](O)[C@H](O)[C@H]2O[C@H]2C[C@](C)(N)[C@H](O)[C@H](C)O2)Oc2ccc(cc2Cl)[C@H]1O` [Vancomycin], in data set [1] (MRSA study strain), the MIC/MBC ratio was 0.5. For the same compound, in data set [1] (MRSA), the MBC stood at 0.78 µg/mL (≈ 0.538 µM) and the MIC stood at 0.39 µg/mL (≈ 0.269 µM). For the same compound, the “antibiotic serum levels (peaks and troughs)” value in data set [2] was “above minimum inhibitory concentrations”. The compound also showed a mean weight gain in data set [3] of 0.39 kg. Further, in data set [4] (setting [5]), the “radiographic improvement (grade)” value was 0.5+/−0.2 and the “radiographic improvement (percent)” value is 25%. In data set [4] (bone cultures), the “percentage of bone samples positive for MRSA” value is 18.2%. The “rabbits/samples positive for MRSA in bone” value in data set [4] (bone cultures at sacrifice) was 2 out of 11. In addition, the “proportion of positive cultures in marrow” value in data set [4] (compared with 0.33 (5/15) in control group) is “not statistically significantly different from the control group”. For the same compound, in data set [4] (setting [6]), the “Counts (CFU/gm) Bone” value was 270.3 CFU/gm and 1315.8 CFU/gm and 0 CFU/gm (14×); the “Counts (CFU/gm) Marrow” value is 1250 CFU/gm and 0 CFU/gm (15×). The “average bacterial concentration of the group” value in data set [4] (tibia bone) is 1.4×10^2 CFU/gram bone.
For `C[C@H]1[C@H](NC(=O)/C(=N\OC(C)(C)C(=O)O)c2csc(N)n2)C(=O)N1S(=O)(=O)O` [Aztreonam], the “adverse event leading to discontinuation” value in the data set with Acinetobacter baumannii is “persistent eosinophilia”.
For `CO[C@H]1/C=C/O[C@@]2(C)Oc3c(C)c(O)c4c(O)c(c(/C=N/N5CCN(C)CC5)c(O)c4c3C2=O)NC(=O)/C(C)=C\C=C\[C@H](C)[C@H](O)[C@@H](C)[C@@H](O)[C@@H](C)[C@H](OC(C)=O)[C@@H]1C` [rifampin], the MIC/MBC ratio in data set [1] (MRSA study strain) is recorded as 0.5. Further, in data set [1] (MRSA, MRSA study strain, inoculum 10^6 CFU/ml), the MIC stood at 0.78 µg/mL (≈ 0.948 µM). In addition, the MBC in data set [1] (MRSA study strain, inoculum 10^6 CFU/ml) turned out to be 1.56 µg/mL (≈ 1.9 µM). Also, in data set [4] (end of study, MRSA infected rabbits), the “bacterial outcome in bone and marrow, in words” value is reported as “bactericidal activity”.
`O=C(O)c1cn(C2CC2)c2cc(N3CCNCC3)c(F)cc2c1=O` [ciprofloxacin]: the “susceptibility of the organism” value in the data set with A. baumanii is recorded as “resistant”.
